Assay results reported in ChEMBL document CHEMBL6103654, “Design, Biological Characterization, and Discovery of Capromorelin Derivatives as Oral Growth Hormone Secretagogue Receptor Type 1a Agonist for the Treatment of Growth Hormone Deficiency” (J Med Chem, 2025).
The source made the active and inactive calls. No cut-off for these calls is given here.

What was measured:
[1] = target: Growth hormone secretagogue receptor type 1 (Rattus norvegicus, UniProt O08725); experiment: Agonist activity at rat GHSR expressed in CHO cells incubated for 60 min by FLIPR assay; format: functional, cell-based
Cytochrome P450 2D6 = Cytochrome P450 2D6 (Homo sapiens, UniProt P10635); experiment: Inhibition of CYP2D6 in human liver microsome incubated for 5 min in presence of NADPH by UPLC-MS/MS analysis; format: ADME, microsomes
[2] = Metabolic stability in mouse liver microsome assessed as intrinsic clearance at 1 uM measured upto 60 mins in presence of NADPH by LC-MS/MS analysis; format: ADME; conditions: liver microsomes, read-out: CLH
Rattus norvegicus [3] = experiment: Induction of growth hormone level in 4 week-old female Sprague-Dawley rat assessed as increase in body length at 2.5 mg/kg, po measured after 10 days; format: functional, organism-based; conditions: time 10.0 day
Rattus norvegicus [4] = experiment: Induction of growth hormone level in Juvenile Sprague-Dawley rat blood by measuring AUC(0 to 40 mins) at 0.2 mg/kg, po administered as single dose by ELISA method (reference value: 20.2+/-4.3 ng/mL); format: functional, organism-based
[5] = Genotoxicity in Salmonella typhimurium TA1537 by Ames test; format: toxicity; conditions: salmonella enterica subsp. enterica serovar typhimurium
[6] = target: T1, 5-hydroxytryptamine receptor 3A (Homo sapiens, UniProt P46098); experiment: Inhibition of human HTR3A by fluorimetry analysis
T1 sequence (P46098 whole entry): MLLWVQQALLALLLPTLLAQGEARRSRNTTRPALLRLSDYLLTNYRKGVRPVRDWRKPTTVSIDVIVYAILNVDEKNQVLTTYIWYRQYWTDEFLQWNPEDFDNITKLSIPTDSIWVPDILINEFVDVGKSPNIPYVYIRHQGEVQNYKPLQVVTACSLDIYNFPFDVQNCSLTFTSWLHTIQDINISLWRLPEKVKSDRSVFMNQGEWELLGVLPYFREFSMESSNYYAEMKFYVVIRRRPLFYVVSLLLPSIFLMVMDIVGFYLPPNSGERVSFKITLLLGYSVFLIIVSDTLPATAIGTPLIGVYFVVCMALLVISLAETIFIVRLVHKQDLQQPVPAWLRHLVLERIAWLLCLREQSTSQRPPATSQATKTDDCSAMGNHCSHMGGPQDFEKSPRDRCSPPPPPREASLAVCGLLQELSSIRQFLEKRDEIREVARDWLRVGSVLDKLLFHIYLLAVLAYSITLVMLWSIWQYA

Cytochrome P450 3A4 = Cytochrome P450 3A4 (Homo sapiens, UniProt P08684); experiment: Inhibition of CYP3A4 in human liver microsome using testosterone as substrate incubated for 5 min in presence of NADPH by UPLC-MS/MS analysis; format: ADME, microsomes
[7] = Metabolic stability in human liver microsome assessed as intrinsic clearance at 1 uM measured upto 60 mins in presence of NADPH by LC-MS/MS analysis; format: ADME; conditions: liver microsomes, read-out: CLH
[8] = AUC in male monkey at 2 mg/kg, po administered as single dose measured after 4 hrs; format: ADME, organism-based, Macaca mulatta; conditions: rhesus monkey, in vivo
Rattus norvegicus [9] = experiment: Induction of growth hormone level in Juvenile Sprague-Dawley rat blood at 0.1 mg/kg, po administered as single dose measured after 4 hrs by ELISA method (reference value: 32.5+/-4.5 ng/mL); format: functional
[10] = Clearance in male Sprague-Dawley rat plasma at 1 mg/kg, iv administered as single dose measured after 4 hrs; format: ADME, organism-based
Rattus norvegicus [11] = experiment: Induction of growth hormone level in 4 week-old male Sprague-Dawley rat assessed as increase in body weight at 2.5 mg/kg, po measured after 10 days; format: functional, organism-based; conditions: time 10.0 day
[12] = Metabolic stability in monkey liver microsome assessed as hepatic clearance at 1 uM measured upto 60 mins in presence of NADPH by LC-MS/MS analysis; format: ADME, Macaca mulatta; conditions: rhesus monkey, liver microsomes, read-out: CLH
[13] = Toxicity in Sprague-Dawley rat assessed as change in hepatic structure by measuring hepatic lobules at 10 to 100 mg/kg, po administered once daily for 14 days; format: organism-based; conditions: in vivo, 336 h, dose 10-100 mg/kg, time 14 day
Rattus norvegicus [14] = experiment: Induction of growth hormone level in adult Sprague-Dawley rat blood at 0.2 mg/kg, po administered as single dose measured after 40 mins by ELISA method (reference value: 14.4+/-6.9 ng/mL); format: functional
[15] = Cmax in male Sprague-Dawley rat at 2 mg/kg, po administered as single dose measured after 4 hrs; format: ADME, organism-based; conditions: in vivo
[16] = Oral bioavailability in male Sprague-Dawley rat at 2 mg/kg administered as single dose measured after 4 hrs; format: ADME, organism-based; conditions: in vivo
[17] = Volume of distribution in male mouse at 1 mg/kg, iv administered as single dose measured after 4 hrs; format: ADME, organism-based; conditions: in vivo
Rattus norvegicus [18] = experiment: Induction of growth hormone level in Juvenile Sprague-Dawley rat blood at 0.5 mg/kg, po administered as single dose measured after 1 hr by ELISA method (reference value: 45.2+/-12.5 ng/mL); format: functional
Rattus norvegicus [19] = experiment: Induction of growth hormone level in Juvenile Sprague-Dawley rat blood at 0.2 mg/kg, po administered as single dose measured after 4 hrs by ELISA method (reference value: 32.5+/-4.5 ng/mL); format: functional
Rattus norvegicus [20] = experiment: Induction of growth hormone level in Juvenile Sprague-Dawley rat blood at 0.2 mg/kg, po administered as single dose measured immediately by ELISA method (reference value: 28.5+/-8.7 ng/mL); format: functional
[21] = Plasma protein binding in dog assessed as unbound fraction measured after 6 hrs by dialysis method; format: ADME, cell-free, Canis lupus familiaris
[22] = Plasma protein binding in monkey assessed as unbound fraction measured after 6 hrs by dialysis method; format: ADME, cell-free, Macaca mulatta; conditions: rhesus monkey
[23] = Volume of distribution in male Sprague-Dawley rat at 1 mg/kg, iv administered as single dose measured after 4 hrs; format: ADME, organism-based; conditions: in vivo
[24] = Metabolic stability in human liver microsome assessed as half life at 1 uM measured upto 60 mins in presence of NADPH by LC-MS/MS analysis; format: ADME; conditions: liver microsomes
[25] = Half life in male dog at 0.5 mg/kg, iv administered as single dose measured after 4 hrs; format: ADME, organism-based, Canis lupus familiaris; conditions: in vivo
[26] = Half life in male mouse at 2 mg/kg, po administered as single dose measured after 4 hrs; format: ADME, organism-based; conditions: in vivo
[27] = Volume of distribution in male dog at 0.5 mg/kg, iv administered as single dose measured after 4 hrs; format: ADME, organism-based, Canis lupus familiaris; conditions: in vivo
[28] = Oral bioavailability in male mouse at 2 mg/kg administered as single dose measured after 4 hrs; format: ADME, organism-based; conditions: in vivo
Rattus norvegicus [29] = organism: Rattus norvegicus; experiment: Induction of growth hormone level in 4 week-old Sprague-Dawley rat assessed as increase in body length measured after 10 days; format: functional, organism-based; conditions: time 10.0 day
[30] = Half life in male dog at 2 mg/kg, po administered as single dose measured after 4 hrs; format: ADME, organism-based, Canis lupus familiaris; conditions: in vivo
[31] = Toxicity in Sprague-Dawley rat assessed as effect on lymphocyte containing white pulp around central arteriole at 10 to 100 mg/kg, po administered once daily for 14 days by H&E staining based analysis; format: organism-based; conditions: in vivo, 336 h, dose 10-100 mg/kg, time 14 day
Rattus norvegicus [32] = experiment: Induction of growth hormone level in Juvenile Sprague-Dawley rat blood at 0.1 mg/kg, po administered as single dose measured after 20 mins by ELISA method (reference value: 29.1+/-8.6 ng/mL); format: functional
[33] = AUC in male dog at 2 mg/kg, po administered as single dose measured after 4 hrs; format: ADME, organism-based, Canis lupus familiaris; conditions: in vivo

Chain of Cytochrome P450 3A4 (P08684 whole entry): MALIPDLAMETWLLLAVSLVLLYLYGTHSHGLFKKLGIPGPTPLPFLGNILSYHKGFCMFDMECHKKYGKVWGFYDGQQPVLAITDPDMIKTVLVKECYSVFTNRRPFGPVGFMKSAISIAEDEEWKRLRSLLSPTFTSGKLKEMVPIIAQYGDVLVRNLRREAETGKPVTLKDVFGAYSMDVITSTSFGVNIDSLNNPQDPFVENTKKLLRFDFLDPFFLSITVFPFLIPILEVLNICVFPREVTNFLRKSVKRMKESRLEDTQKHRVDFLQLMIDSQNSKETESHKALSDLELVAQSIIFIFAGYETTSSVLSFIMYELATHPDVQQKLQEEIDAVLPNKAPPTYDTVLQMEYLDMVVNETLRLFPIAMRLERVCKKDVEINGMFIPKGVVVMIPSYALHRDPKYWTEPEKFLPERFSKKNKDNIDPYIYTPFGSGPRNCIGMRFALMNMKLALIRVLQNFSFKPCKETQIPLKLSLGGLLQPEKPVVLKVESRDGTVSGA
Chain of Growth hormone secretagogue receptor type 1 (O08725 whole entry): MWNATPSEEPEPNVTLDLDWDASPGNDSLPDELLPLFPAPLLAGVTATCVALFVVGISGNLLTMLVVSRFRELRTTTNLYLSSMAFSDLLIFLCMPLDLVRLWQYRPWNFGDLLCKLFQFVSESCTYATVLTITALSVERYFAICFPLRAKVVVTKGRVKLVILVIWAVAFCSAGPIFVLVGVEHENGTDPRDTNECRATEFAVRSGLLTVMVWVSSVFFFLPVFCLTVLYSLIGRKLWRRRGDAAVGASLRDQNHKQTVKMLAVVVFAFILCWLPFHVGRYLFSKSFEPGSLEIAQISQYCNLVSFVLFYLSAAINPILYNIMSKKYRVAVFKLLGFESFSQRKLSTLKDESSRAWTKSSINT
Chain of Cytochrome P450 2D6 (P10635 whole entry): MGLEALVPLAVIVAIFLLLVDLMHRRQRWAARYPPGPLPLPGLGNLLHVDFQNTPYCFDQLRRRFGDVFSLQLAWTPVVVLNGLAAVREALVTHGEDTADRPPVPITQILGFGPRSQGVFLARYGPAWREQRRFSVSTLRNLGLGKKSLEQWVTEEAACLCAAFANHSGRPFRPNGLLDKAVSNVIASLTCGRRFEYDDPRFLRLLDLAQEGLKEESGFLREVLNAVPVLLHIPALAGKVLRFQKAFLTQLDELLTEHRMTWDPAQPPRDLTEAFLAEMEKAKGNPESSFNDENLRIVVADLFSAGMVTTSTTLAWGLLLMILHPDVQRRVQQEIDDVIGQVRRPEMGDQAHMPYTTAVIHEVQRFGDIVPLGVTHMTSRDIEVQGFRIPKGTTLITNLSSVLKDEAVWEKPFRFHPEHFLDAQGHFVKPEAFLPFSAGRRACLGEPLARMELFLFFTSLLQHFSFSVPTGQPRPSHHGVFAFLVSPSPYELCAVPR

EC50 [1]: 7 pM
IC50 (Cytochrome P450 2D6): > 30 µM
microsomal CLint at 1 µM [2]: 330 µL/min/mg
IC50 [6]: 3.06 µM
IC50 (Cytochrome P450 3A4): > 30 µM
microsomal CLint at 1 µM [7]: 123 µL/min/mg
AUC [8]: 75.13 ng·h/mL
clearance [10]: 28.9 mL/min/kg
CLint scaled at 1 µM [12]: 541 mL/min/kg
Cmax [15]: 156 ng/mL
bioavailability [16]: 16.7%
Vd [17]: 2.94 L/kg
fraction unbound at 6 h [21]: 0.563
fraction unbound at 6 h [22]: 0.46
Vd [23]: 2.65 L/kg
half-life at 1 µM [24]: 0.188 h
half-life [25]: 0.94 h
half-life [26]: 1.52 h
Vd [27]: 2.88 L/kg
bioavailability [28]: 33.9%
half-life [30]: 1.19 h
AUC at 4 h [33]: 406 ng·h/mL
SMILES: CC(C)(N)C(=O)N[C@H](COCc1ccccc1)C(=O)N1CCC2=NN(C3CC3)C(=O)[C@]2(Cc2ccccc2)C1
Activity (Rattus norvegicus [3]): Active
AUC (Rattus norvegicus [4]): 102 ng·h/mL
Activity [5]: Non-toxic
Activity (Rattus norvegicus [9]): 41.4 ng/mL
Activity (Rattus norvegicus [11]): Active
Activity [13]: Non-toxic
Activity (Rattus norvegicus [14]): 26 ng/mL
Activity (Rattus norvegicus [18]): 27.2 ng/mL
Activity (Rattus norvegicus [19]): 43.5 ng/mL
Activity (Rattus norvegicus [20]): 33.4 ng/mL
Activity (Rattus norvegicus [29]): Dose-dependent-effect
Activity [31]: Non-toxic
Activity (Rattus norvegicus [32]): 263.6 ng/mL
